This is an account of results in US8299048B2, “Hexahydrocyclopentyl[f]indazole sulfonamides and derivatives thereof as selective glucocorticoid receptor modulators” (Merck Sharp & Dohme Corp., priority 2008, dated 2012).

Bounds are passed on as bounds.

Assay [1] has as its target T1, human GR (Homo sapiens, UniProt P04150).
T1 sequence (P04150 1-777): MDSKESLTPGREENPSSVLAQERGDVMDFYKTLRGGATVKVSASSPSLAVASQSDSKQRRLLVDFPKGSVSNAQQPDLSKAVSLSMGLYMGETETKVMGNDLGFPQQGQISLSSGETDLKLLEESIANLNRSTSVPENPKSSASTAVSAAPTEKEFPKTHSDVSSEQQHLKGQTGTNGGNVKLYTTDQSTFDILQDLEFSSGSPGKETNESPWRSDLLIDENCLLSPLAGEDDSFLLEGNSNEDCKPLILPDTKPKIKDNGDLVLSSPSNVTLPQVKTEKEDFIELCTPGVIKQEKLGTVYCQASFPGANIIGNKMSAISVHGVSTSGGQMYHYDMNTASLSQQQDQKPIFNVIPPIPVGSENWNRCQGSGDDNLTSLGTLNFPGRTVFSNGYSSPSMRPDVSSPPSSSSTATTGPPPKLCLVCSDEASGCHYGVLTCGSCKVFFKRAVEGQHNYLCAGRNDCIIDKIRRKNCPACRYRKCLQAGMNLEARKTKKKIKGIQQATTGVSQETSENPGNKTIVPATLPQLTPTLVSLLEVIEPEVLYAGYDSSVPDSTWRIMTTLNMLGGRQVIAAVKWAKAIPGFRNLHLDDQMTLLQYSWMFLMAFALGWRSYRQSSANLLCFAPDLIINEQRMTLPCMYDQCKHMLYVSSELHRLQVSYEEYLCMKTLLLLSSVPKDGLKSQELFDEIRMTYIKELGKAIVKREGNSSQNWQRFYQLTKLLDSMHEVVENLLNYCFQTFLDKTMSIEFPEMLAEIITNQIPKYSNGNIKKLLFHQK
Briefly: Transrepression Assay (GITAR), TNFα-β-lactamase reporter in U937 cells. Type of assay: cell-based. On the set-up: U937 cells contain an endogenous glucocorticoid receptor (GR); endogenous in cells; host or cells: U937 cells stably transfected with the TNF-alpha promoter/beta-lactamase reporter. As to conditions: for GITAR > GRAMM % SEP: GITAR Emax minus GRAMMER Emax; for EC50: U937 cells, inflection point, read-out: Transrepression U937 Cells GITAR IP. Put shortly: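 Read-out: CCF2-AM β-lactamase signal after 70–90 min loading at room temperature. U937 TNF-α-promoter reporter cells (endogenous GR), compound 30–45 min at 37 °C, then PMA 5 ng/ml + LPS 100 ng/ml final, ~18 hr. Normalised to 100 nM dexamethasone = 100%.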

Assay [2] deals with T1, human GR. Put plainly: Trans-Activation Modulation of Glucocorticoid Receptor (GRAMMER), MMTV-LUC reporter, agonist mode. Type of assay: cell-based. On the set-up: endogenous in cells. Particulars: for Emax: A549, A549 cells, maximum activity, read-out: Transactivation A549 Cells GRAMMER Emax; for EC50: A549 cells, inflection point, read-out: Transactivation A549 Cells GRAMMER IP. The gist of the method:
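Readout is luciferase from a modified MMTV LTR promoter after 24 h compound exposure alongside 10 nM dexamethasone (100% activity reference), DMSO ≤1%.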

Setting [3] is: U-937, U937 cells, maximum activity, read-out: Transrepression U937 Cells GITAR Emax.
[4] abbreviates: U-937, activity repressed by 100 nM dexamethasone alone set as 100%, read-out: maximal activity in the transrepression (GITAR) assay.

Turning to `C[C@]12Cc3cnn(-c4ccc(F)cc4)c3C=C1CC[C@@H]2CN(CC#N)S(=O)(=O)c1ccc(Cl)c(C(F)(F)F)c1` [Example 27, 4-chloro-N-(cyanomethyl)-N-{[(4αR,5S)-1-(4-fluorophenyl)-4α-methyl-1,4,4α,5,6,7-hexahydrocyclopenta[f]indazol-5-yl]methyl}-3-(trifluoromethyl)benzenesulfonamide], the “GITAR > GRAMM % SEP” value at human GR [1] is listed as 10.0%. The EC50 on human GR [1] is 638 nM; at human GR [2], 994 nM. Besides, the figures for the Emax at human GR [1] (setting [3]), at human GR [1] (setting [4]) and on human GR [2] were 13%, more than 5% and 3%, respectively.

With `C[C@]12Cc3cnn(-c4ccc(F)cc4)c3C=C1CC[C@@H]2CN(CC#N)S(=O)(=O)c1ccc(C#N)cc1` [Example 28, 4-cyano-N-(cyanomethyl)-N-{[(4αR,5S)-1-(4-fluorophenyl)-4α-methyl-1,4,4α,5,6,7-hexahydrocyclopenta[f]indazol-5-yl]methyl}benzenesulfonamide], the “GITAR > GRAMM % SEP” value on human GR [1] is 34.8%. Further, the figures for the EC50 at human GR [1] and at human GR [2] were 662 nM and 483 nM, respectively. The results for the Emax on human GR [1] (setting [3]), at human GR [1] (setting [4]) and at human GR [2] were 78.8%, more than 5% and 44%, respectively.

With `Cc1cc(S(=O)(=O)N(CC#N)C[C@H]2CCC3=Cc4c(cnn4-c4ccc(F)cc4)C[C@@]32C)c(C)cc1Cl` [Example 29, 4-chloro-N-(cyanomethyl)-N-{[(4αR,5S)-1-(4-fluorophenyl)-4α-methyl-1,4,4α,5,6,7-hexahydrocyclopenta[f]indazol-5-yl]methyl}-2,5-dimethylbenzenesulfonamide], the “GITAR > GRAMM % SEP” value at human GR [1] is listed as 26.2%. Besides, the EC50 on human GR [1] is 838 nM; at human GR [2], 1710 nM. The results for the Emax on human GR [1] (setting [3]), on human GR [1] (setting [4]) and on human GR [2] were 30.9%, more than 5% and 4.7%, respectively.

On to `C[C@]12Cc3cnn(-c4ccc(F)cc4)c3C=C1CC[C@@H]2CN(CC#N)S(=O)(=O)Cc1cccc(C(F)(F)F)c1` [Example 30, N-(cyanomethyl)-N-{[(4αR,5S)-1-(4-fluorophenyl}-4α-methyl-1,4,4α,5,6,7-hexahydrocyclopenta[f]indazol-5-yl]methyl}-1-[3-(trifluoromethyl)phenyl]methanesulfonamide], for which the “GITAR > GRAMM % SEP” value at human GR [1] was 16.4%. In addition, the figures for the EC50 on human GR [1] and at human GR [2] were 417 nM and 1640 nM, respectively. The Emax on human GR [1] (setting [3]) was 19.9%; on human GR [1] (setting [4]), more than 5%; on human GR [2], 3.5%.

Turning to `Cc1ccc(S(=O)(=O)N(CC#N)C[C@H]2CCC3=Cc4c(cnn4-c4ccc(F)cc4)C[C@@]32C)s1` [Example 31, N-(cyanomethyl)-N-{[(4αR,5S)-1-(4-fluorophenyl}-4α-methyl-1,4,4α,5,6,7-hexahydrocyclopenta[f]indazol-5-yl]methyl}-5-methylthiophene-2-sulfonamide], the “GITAR > GRAMM % SEP” value on human GR [1] is 34.0%. The values for the EC50 at human GR [1] and at human GR [2] were 679 nM and 833 nM, respectively. Also, the values for the Emax on human GR [1] (setting [3]), on human GR [1] (setting [4]) and on human GR [2] were 54.8%, more than 5% and 20.7%, respectively.

On to `Cn1cc(S(=O)(=O)N(CC#N)C[C@H]2CCC3=Cc4c(cnn4-c4ccc(F)cc4)C[C@@]32C)c(C(F)(F)F)n1` [Example 32, N-(cyanomethyl)-N-{[(4αR,5S)-1-(4-fluorophenyl}-4α-methyl-1,4,4α,5,6,7-hexahydrocyclopenta[f]indazol-5-yl]methyl}-1-methyl-3-(trifluoromethyl)-1H-pyrazole-4-sulfonamide], for which the “GITAR > GRAMM % SEP” value at human GR [1] worked out at 33.7%. The values for the EC50 at human GR [1] and at human GR [2] were 555 nM and 868 nM, respectively. For the same molecule, the Emax at human GR [1] (setting [3]) was 63.1%; at human GR [1] (setting [4]) it was more than 5%; on human GR [2] it was 29.4%.

For `Cc1cc(S(=O)(=O)N(CC#N)C[C@H]2CCC3=Cc4c(cnn4-c4ccc(F)cc4)C[C@@]32C)c(C)o1` [Example 33, (4αR,5S)-5-({(cyanomethyl)[(2,5-dimethyl-3-furyl)sulfonyl]amino}methyl)-1-(4-fluorophenyl)-4α-methyl-1,4,4α,5,6,7-hexahydrocyclopenta[f]indazol-2-ium], at human GR [1], the “GITAR > GRAMM % SEP” value was 44.5%. In addition, the results for the EC50 on human GR [1] and at human GR [2] were 1200 nM and 1050 nM, respectively. Besides, the Emax was 59.7% on human GR [1] (setting [3]), more than 5% on human GR [1] (setting [4]) and 15.2% on human GR [2].

Take `COC(=O)c1sccc1S(=O)(=O)N(CC#N)C[C@H]1CCC2=Cc3c(cnn3-c3ccc(F)cc3)C[C@@]21C` [Example 34, methyl 3-[((cyanomethyl){[(4αR,5S)-1-(4-fluorophenyl)-4α-methyl-1,4,4α,5,6,7-hexahydrocyclopenta[f]indazol-5-yl]methyl}amino)sulfonyl]thiophene-2-carboxylate]: on human GR [1], the “GITAR > GRAMM % SEP” value was 8.9%. The EC50 worked out at 1780 nM at human GR [1] and 748 nM on human GR [2]. For the same molecule, the Emax on human GR [1] (setting [3]) is 45.9%; at human GR [1] (setting [4]), more than 5%; at human GR [2], 37%.

On to `Cn1nc(C(F)(F)F)cc1-c1ccc(S(=O)(=O)N(CC#N)C[C@H]2CCC3=Cc4c(cnn4-c4ccc(F)cc4)C[C@@]32C)s1` [Example 35], for which the “GITAR > GRAMM % SEP” value on human GR [1] worked out at 34.6%. For the same molecule, the EC50 was 777 nM on human GR [1] and 443 nM on human GR [2]. Further, the Emax was 39.5% at human GR [1] (setting [3]), more than 5% at human GR [1] (setting [4]) and 4.9% at human GR [2].

As for `C[C@]12Cc3cnn(-c4ccc(F)cc4)c3C=C1CC[C@@H]2CN(CC#N)S(=O)(=O)c1cccc(C#N)c1` [Example 36, 3-cyano-N-(cyanomethyl)-N-{[(4αR,5S)-1-(4-fluorophenyl)-4α-methyl-1,4,4α,5,6,7-hexahydrocyclopenta[f]indazol-5-yl]methyl}benzenesulfonamide], the “GITAR > GRAMM % SEP” value at human GR [1] worked out at 49.5%. The EC50 is 540 nM at human GR [1] and 745 nM on human GR [2]. Moreover, the Emax at human GR [1] (setting [3]) is 72.2%; on human GR [1] (setting [4]), more than 5%; at human GR [2], 22.7%.

Regarding `Cn1cnc(S(=O)(=O)N(CC#N)C[C@H]2CCC3=Cc4c(cnn4-c4ccc(F)cc4)C[C@@]32C)c1` [Example 37, N-(cyanomethyl)-N-{[(4αR,5S)-1-(4-fluorophenyl}-4α-methyl-1,4,4α,5,6,7-hexahydrocyclopenta[f]indazol-5-yl]methyl}-1-methyl-1H-imidazole-4-sulfonamide], the “GITAR > GRAMM % SEP” value on human GR [1] is listed as 30.9%. Moreover, the EC50 came out at 1350 nM on human GR [1] and 2190 nM on human GR [2]. Moreover, the Emax at human GR [1] (setting [3]) is 33.8%; at human GR [1] (setting [4]), more than 5%; at human GR [2], 2.8%.

Turning to `C[C@]12Cc3cnn(-c4ccc(F)cc4)c3C=C1CC[C@@H]2CN(CC#N)S(=O)(=O)c1ccc(Oc2cccc(Cl)c2C#N)cc1` [Example 38, 4-(3-chloro-2-cyanophenoxy)-N-(cyanomethyl)-N-{[(4αR,5S)-1-(4-fluorophenyl)-4α-methyl-1,4,4α,5,6,7-hexahydrocyclopenta[f]indazol-5-yl]methyl}benzenesulfonamide], the “GITAR > GRAMM % SEP” value on human GR [1] was 32.5%. Also, the EC50 on human GR [1] was 2340 nM; on human GR [2], 5000 nM. For the same molecule, the Emax is 33.8% on human GR [1] (setting [3]), more than 5% at human GR [1] (setting [4]) and 1.3% on human GR [2].

For the molecule `CN1CCOc2cc(S(=O)(=O)N(CC#N)C[C@H]3CCC4=Cc5c(cnn5-c5ccc(F)cc5)C[C@@]43C)ccc21` [Example 39, N-(cyanomethyl)-N-{[(4αR,5S)-1-(4-fluorophenyl)-4α-methyl-1,4,4α,5,6,7-hexahydrocyclopenta[f]indazol-5-yl]methyl}-4-methyl-3,4-dihydro-2H-1,4-benzoxazine-7-sulfonamide], at human GR [1], the “GITAR > GRAMM % SEP” value came to 15.5%. Further, the EC50 on human GR [1] came out at 34.9 nM; at human GR [2], 5000 nM. Further, the Emax is 17.1% on human GR [1] (setting [3]), more than 5% on human GR [1] (setting [4]) and 1.7% at human GR [2].
